Molecular target: T1, α1A-AR (Homo sapiens, UniProt P35348)
T1 sequence (P35348 1-466): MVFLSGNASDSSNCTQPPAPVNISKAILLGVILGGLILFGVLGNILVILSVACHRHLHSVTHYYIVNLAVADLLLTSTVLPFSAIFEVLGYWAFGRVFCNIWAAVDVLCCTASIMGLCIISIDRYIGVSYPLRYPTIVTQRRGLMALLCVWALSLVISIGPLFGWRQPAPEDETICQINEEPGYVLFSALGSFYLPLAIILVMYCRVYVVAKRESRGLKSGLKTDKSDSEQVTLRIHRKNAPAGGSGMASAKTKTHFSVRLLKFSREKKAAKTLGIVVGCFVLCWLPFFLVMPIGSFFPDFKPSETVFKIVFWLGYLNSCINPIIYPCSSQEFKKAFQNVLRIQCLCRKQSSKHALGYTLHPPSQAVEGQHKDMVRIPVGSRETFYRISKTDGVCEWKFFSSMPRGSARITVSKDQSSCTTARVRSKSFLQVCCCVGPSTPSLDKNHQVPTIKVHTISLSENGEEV
Assay: Ca2+ transient response (FLIPR, fluo3) in α1A-AR transduced HEK-293/EBNA cells
Assay type: cell-based
Design: expressed in transfected cells; host or cells: HEK-293/EBNA (baculovirus transduction, NaBu induction)
Protocol: Prior to experiments, cells were transduced with baculovirus strains designed for transient expression of α1A-AR or aldehyde oxidase (negative control). This was performed by incubating cells with virus (MOI 100–150) for 3 to 4 h, followed by exchange into fresh serum free growth medium supplemented with 4 mM sodium butyrate (NaBu). Cells were grown for another 14 to 18 h and then examined for agonist-evoked responses in transient Ca^2+ release, IP accumulation or pERK activation assays. The surface receptor expression density was determined by flow cytometry via immunofluorescence labeling of an N-terminal HA epitope tag on the receptor and radioligand binding in partially purified membranes.
Cells were resuspended in Hank’s balanced salt solution (Invitrogen) supplemented with 2 mM CaCl2, 10 mM HEPES pH 7.4, 2.5 mM probenecid, plus 1g/L each of glucose and bovine serum albumin (BSA), and seeded in poly-D-lysine coated 96-well black plates with transparent bottom (Costar) at a density of 50,000 cells/0.1 mL per well. Cells were then incubated for 1 h at 37°C with an additional 0.1 mL of buffer containing 4 μM fluo3-AM that was diluted from a stock solution containing 1 mM fluo3-AM dye in DMSO with 10% pluronic acid. After dye loading incubation, plates were washed twice with 100 μL of buffer and refilled with 100 μL of assay buffer. In experiments testing the effect of antagonists, 25 μL of buffer from wells of washed cells were replaced with 25 μL of vehicle or 4× antagonist solution. Pre-incubation of ligand with dye-loaded cells proceeded for 5–30 minutes immediately prior to measurements of agonist-evoked responses. Agonist-evoked Ca^2+ mobilization responses of cell populations were monitored at room temperature simultaneously in all wells of the assay plate using the plate-imaging fluorometric reader FLIPR (MDS Analytical Technologies, Sunnyvale, CA). […] The amplitudes of Ca^2+ transient responses are reported as ΔF/F0, or fold-change in Ca^2+ dye fluorescence relative to the baseline signal ΔF/F0 = (F-F0)/F0 +1 (where ΔF is maximal fluorescence intensity observed following agonist application, F0 = baseline fluorescence, or average intensity measured over the 10 s interval prior to agonist application). Image acquisition rates were varied from 1 Hz during the first 100 s of measurements to 0.5 Hz for the remaining time of the recording.
Graphs shown reflect either pooled or representative data (see figure legends). For concentration-response analysis, results from Ca^2+ mobilization experiments were plotted as ΔF/F0 vs. agonist concentration and fit to a sigmoidal concentration-response equation using the GraphPad Prism software package. In cases where biphasic concentration-response curves were observed data were fit to a two-site concentration-response model: F(X)=R0+(Rmax−R0)[Fr1/(1+10^X-logEC50,1)+(1−Fr1)/(1+10^X-logEC50,2)] (1) , where X is the logarithm of the agonist concentration, R0 and Rmax are respectively the response minimum and maximum; Fr1 is the response fraction attributable to receptor characterized by half effective concentration of the first response phase (EC50,1), with the reminder response attributable to the second half effective concentration (EC50,2). For radioligand binding experiments, B max values were calculated from maximum binding using the equation B max = (SB × ([…] + [L])/[L]), where SB is the specific binding expressed as fmol per mg of membrane protein, and [L] is the ligand concentration.

CC(C)NCC(O)c1ccc(O)c(O)c1 (centres unmarked) [Iso, isoproterenol]
maximal response amplitude ΔF/F0 in presence of ICI 118,551: 1.3 | magnitude ΔF/F0 in presence of RS100329 (10 nM RS100329 pretreatment): 1.2 | ΔF/F0, β2-AR-dependent phase (pertussis toxin 100 ng/mL, 18 h): 1.5 | ΔF/F0, β2-AR-dependent phase (vehicle (no PTX), Fig. 4B): 1.3 | diminution of low potency phase of response in absence of extracellular Ca2+ (α1A-AR transduced cells): approximately 50%

— paper PMC4301629 (PLoS ONE, 2015)
